From patent publication US5114918A, “Endothelin antagonistic cyclic pentapeptides” (Banyu Pharmaceutical Co., Ltd., priority 1989, dated 1992)
Several values for one entry are separate records, joined by “and”; a condition that tells them apart may be missing. Equal entries are not always repeated. Square brackets hold non-standard residues; d marks the D form. Peptide text beside a SMILES is read from it.

How the values were obtained:
[1] = tested on: isolated porcine coronary artery (endothelin-1-induced contraction); assay: Activities against endothelin-induced contraction of isolated porcine coronary arteries; design: species or system pig; settings: compound 2 μM
Procedure: Activities against endothelin-induced contraction of isolated procine coronary arteries
The coronary artery of pig was extracted, and a spiral preparation having a width of 1 mm and a length of 10 mm was prepared therefrom. The preparation having the endothelial cells denuded, was hanged in a 5 ml organ bath filled wit a Krebs.Henseleit solution saturated with a gas mixture of 95% O2 and 5% CO2, and the change in the tension was isometrically measured and recorded.
(§1) Endothelin-1 was added into the organ bath in a cumulatively increasing manner, whereby the influence of the compound of the present invention to the concentration-response curve for endothelin-1 was examined. The compound of the present invention was added into the organ bath 20 minutes prior to the addition of endothelin-1.

[2] = target: T1, endothelin receptor (membrane of smooth muscle tissue of porcine aorta) (Sus scrofa, UniProt Q29010); assay: Endothelin binding inhibition test (125I-endothelin-1, porcine aorta smooth muscle membrane); settings: 1.1 μM of the test compound; porcine aorta smooth muscle membrane; 25° C, 4 hours; read-out: 125I-endothelin-1 binding inhibition, Inhibition (%)
T1 construct: from tissue; host or cells: smooth muscle tissue of porcine aorta (membrane fraction)
T1 sequence (Q29010 21-427): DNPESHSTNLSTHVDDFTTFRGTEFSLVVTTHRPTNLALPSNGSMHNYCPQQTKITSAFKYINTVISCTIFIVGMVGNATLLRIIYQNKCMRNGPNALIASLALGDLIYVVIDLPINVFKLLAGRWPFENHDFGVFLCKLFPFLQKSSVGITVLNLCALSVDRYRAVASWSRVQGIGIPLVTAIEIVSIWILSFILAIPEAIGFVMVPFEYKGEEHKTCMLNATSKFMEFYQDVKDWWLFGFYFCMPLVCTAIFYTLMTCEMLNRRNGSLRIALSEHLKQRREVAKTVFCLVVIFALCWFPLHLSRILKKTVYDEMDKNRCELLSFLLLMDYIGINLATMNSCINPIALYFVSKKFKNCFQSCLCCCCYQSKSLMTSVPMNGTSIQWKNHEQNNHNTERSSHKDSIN
Method in brief: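 Porcine aortic smooth muscle membranes incubated with ^125I-endothelin-1 (12000-18000 cpm) and test compound at 1.1 μM final in Tris/HCl pH 7.4 with protease inhibitors and 0.1% BSA, 4 h at 25 °C. Filter-bound radioactivity counted, nonspecific binding defined with 0.2 μM endothelin-1; % binding inhibition in triplicate.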

[3] = tested on: isolated guinea pig trachea (endothelin-1-induced contraction); assay: Activities against endothelin-induced contraction of isolated guinea pig trachea; settings: compound 2 μM
Procedure: Activities aqainst endothelin-induced contraction of isolated guinea pig trachea
The trachea of a guinea pig was extracted, and the trachea was cut into rings to afford the preparation. A preparation having the endothelial cells denuded, was hanged in a 5 ml organ bath filled with a Krebs.Henseleit solution saturated with a gas mixture of 95% O2 and 5% CO2, and the change in the tension was isometrically measured and recorded.
as §1, with “manner, and” for “manner, whereby”, “for endothelin” for “for endothelin-1”

[4] = tested on: mice (endotoxin-induced mortality); assay: Endotoxin shock: endotoxin-induced mortality in mice; format: in vivo, mouse; settings: for Survived number/number of the tested animals / survival rate (%): compound 100 × 2 mg/kg i.p.
Procedure: (§2) Activities against an endotoxin shock
(§3) To a male ddy mouse, endotoxin (Lipopolysaccharide derived from E. coli 055:B5) dissolved in a 0.15% sodium hydrogencarbonate aqueous solution, was intravenously administered via the tail vein at a dose of 30 mg/kg, whereupon a distinct body temperature lowering effect was observed.
The intravenous administration of endotoxin via the tail vein at a high dose (100 mg/kg) killed mice in all cases (10/10) within 48 hours.

[5] = tested on: male ddy mouse (endotoxin-induced body temperature lowering); assay: Endotoxin shock: endotoxin-induced body temperature lowering in mice; format: in vivo; settings: endotoxin 30 mg/kg i.v., compound 100 mg/kg i.p. 30 minutes prior to and 30 minutes subsequent to endotoxin
Procedure: as §2, §3

[6] = added 20 minutes prior to endothelin-1
[7] = 24 hr after endotoxin (100 mg/kg i.v.)
[8] = 48 hr after endotoxin (100 mg/kg i.v.)
[9] = 96 hr after endotoxin (100 mg/kg i.v.)

## CC(C)C[C@@H]1NC(=O)[C@@H](C(C)C)NC(=O)[C@@H]2CCCN2C(=O)[C@@H](CC(=O)O)NC(=O)[C@@H](Cc2c[nH]c3ccccc23)NC1=O [Example 15, cyclo(-DTrp-DAsp-Pro-DVal-Leu-)] (cyclo(L[dW][dD]P[dV]))
[1]
  effect on the maximum response to endothelin-1: did not affect the maximum response
[1]; [6]
  shift of the concentration-response curve of endothelin-1: remarkably shifted the concentration-response curves of endothelin-1 to the right
[2]
  inhibition at 1.1 µM: 85%
[3]
  effect on the maximum response to endothelin-1: did not affect the maximum response
[3]; [6]
  shift of the concentration-response curve for endothelin-1: remarkably shifted the concentration-response curves for endothelin-1 to the right
[4]; [7]
  Survived number/number of the tested animals: 10/10
  survival rate (%): 100%
[4]; [8]
  Survived number/number of the tested animals: 6/10
  survival rate (%): 60%
[4]; [9]
  Survived number/number of the tested animals: five cases out of ten cases survived and 5/10
  survival rate (%): 50%
[4]; endotoxin 100 mg/kg i.v., compound 100 mg/kg i.p. 30 minutes before and after endotoxin
  effect on endotoxin-induced mortality: a distinct reduction in the mortality was observed
[5]
  effect on the endotoxin-induced body temperature lowering: showed remarkable antagonistic activities against the endotoxin-induced body temperature lowering effect
